# Assay results taken from publication PMC2743695 (BMC Structural Biology, 2009).
# Target: AlrBax (Dal1, alanine racemase from Bacillus anthracis Ames) (Bacillus anthracis, UniProt A0A6L7HC45)
# Conditions: covalent (internal aldimine with Lys41); pH 6.5; chloride ion and acetate in active site
# Sequence of AlrBax (Dal1, alanine racemase from Bacillus anthracis Ames) (A0A6L7HC45 1-389 limits assumed): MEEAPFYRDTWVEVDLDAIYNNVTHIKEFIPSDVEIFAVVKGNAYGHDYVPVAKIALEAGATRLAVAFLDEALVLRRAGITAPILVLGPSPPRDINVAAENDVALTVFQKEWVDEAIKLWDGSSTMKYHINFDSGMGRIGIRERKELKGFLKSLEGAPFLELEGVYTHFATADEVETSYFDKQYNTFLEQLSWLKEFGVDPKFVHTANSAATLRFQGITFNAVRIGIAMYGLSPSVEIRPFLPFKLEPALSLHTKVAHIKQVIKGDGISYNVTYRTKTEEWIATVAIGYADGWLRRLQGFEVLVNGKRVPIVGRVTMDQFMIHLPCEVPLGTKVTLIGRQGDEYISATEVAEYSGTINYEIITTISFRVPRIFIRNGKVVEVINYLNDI
compound,measurement,value
Cc1ncc(COP(=O)(O)O)c(C=O)c1O [PLP],"X-ray crystal structure, 1.95 Å","In the AlrBax structure, Lys41 is seen covalently linked to the PLP cofactor"
